Results: patent US9233961B2, “Compounds and compositions for the treatment of parasitic diseases” (Novartis AG, priority 2013, dated 2016)
Read-outs that look alike come from different tables or passages of the source.

Key:
[1] = system: Leishmania donovani axenic amastigote parasites; assay: Leishmania donovani axenic amastigote proliferation assay; assay type: cell-based
Method in brief: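 EC50 values come from CellTiter-Glo luminescence after 2-day compound exposure of axenic amastigotes (9600 per well) at 37 °C, 5% CO2. Medium: RPMI 1640, 20% heat-inactivated FBS, folic acid, adenosine, D-glucose, 25 mM MES, adjusted to pH 5.5.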

[2] = system: L. donovani HU3 strain in mouse peritoneal macrophages; assay: Assay for proliferation of Leishmania parasites in mouse peritoneal macrophages; assay type: cell-based, Leishmania donovani; details: Leishmania donovani, Peritoneal macrophage
Method in brief: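 EC50 derives from counting SYBR Green-stained parasite nuclei by high-content imaging after 5 days' compound exposure. Host cells were uninfected BALB/c peritoneal macrophages, infected for 24 h before dosing with spleen-derived L. donovani HU3 parasites from mice infected 9–11 weeks.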

[3] = axenic amastigotes in vitro, read-out: L. donovani amastigotes EC50
[4] = read-out: L. donavani Macrophage EC50
[5] = read-out: L. donavani Macrophage EC50 (μM)

| SMILES | EC50 [1, 3] [µM] | EC50 [2, 4] [µM] | EC50 [2, 5] [µM] | EC50 ([1]; read-out: L. donovani amastigotes EC50) [µM] | EC50 ([1]; 48 h, L. donovani axenic amastigotes, 2 day incubation, Cell TiterGlo luminescence, read-out: EC50) [µM] |
| --- | --- | --- | --- | --- | --- |
| Cc1cnc2nc(-c3cc(NC(=O)[C@@H]4CCCN4)ccc3F)[nH]c2c1 [Compound 273] | > 25 | > 50 |  |  |  |
| CNC(=O)c1ccc(-c2cnc3nc(-c4cc(NC(=O)c5ccco5)ccc4Cl)[nH]c3c2)cc1 [Compound 64] | 0.68 | > 28.9 |  |  |  |
| O=C(Nc1ccc(Cl)c(-c2nc3ncc(-c4ccc(N5CCNCC5)cc4)cc3[nH]2)c1)N1CCCC1 [Compound 294] | > 25 | 16.9 |  |  |  |
| Cc1ccc(C(=O)Nc2ccc(F)c(-c3nc4ncc(-c5ccsc5)cc4[nH]3)c2)o1 [Example 381, N-{4-fluoro-3-[6-(thiophen-3-yl)-1H-imidazo[4,5-b]pyridin-2-yl]phenyl}-5-methylfuran-2-carboxamide] | 2.5 | 1.6 |  |  |  |
| COCCOc1ccc(-c2cnc3nc(-c4cc(NC(=O)N5CCCC5)ccc4Cl)[nH]c3c2)cc1 [Compound 303] | 0.146 | 0.4 |  |  |  |
| CN1CCN(CCOc2ccc(-c3cnc4nc(-c5cc(NC(=O)N6CCCC6)ccc5F)[nH]c4c3)cc2)CC1 [Compound 311] | > 25 | > 6.9 |  |  |  |
| CC(C)OC(=O)Nc1ccc(Cl)c(-c2nc3ncc(-c4ccccc4)cc3[nH]2)c1 [Example 333, Propan-2-yl N-(4-chloro-3-{6-phenyl-1H-imidazo[4,5-b]pyridin-2-yl}phenyl)carbamate] | 0.66 | 0.048 |  |  |  |
| CC(C)OC(=O)Nc1ccc(Cl)c(-c2nc3ncc(-c4ccccc4NC(=O)OC(C)C)cc3n2C(=O)OC(C)C)c1 [Compound 336] | 1.89 | 2.18 |  |  |  |
| O=C(Nc1ccc(F)c(-c2nc3ncc(-c4ccc(OCCN5CCOCC5)cc4)cc3[nH]2)c1)N1CCCC1 [Compound 295] | 2.86 | 1.27 |  |  |  |
| O=C(Nc1ccc(C(F)(F)F)cc1)Nc1ccc(F)c(-c2nc3ncc(N4CCCCC4)cc3o2)c1 [Compound 397] | > 25 | > 30 |  |  |  |
| O=C(Nc1ccc(C(F)(F)F)cc1)Nc1ccc(F)c(-c2nc3ncc(Cl)cc3[nH]2)c1 [Compound 356] | > 25 | 19.6 |  |  |  |
| O=C(Nc1ccc(Cl)c(-c2nc3ncc(-c4ccc(CN5CCOCC5)cc4)cc3[nH]2)c1)c1ccco1 [Compound 16] | 2.07 | 1.63 |  |  |  |
| CC(=O)Nc1ccc(-c2cnc3nc(-c4cc(NC(=O)Nc5ccc(C(F)(F)F)cc5)ccc4F)oc3c2)cc1 [Compound 401] | 4.7 | 3.12 |  |  |  |
| O=C(Nc1ccc(Cl)c(-c2nc3ncc(-c4ccc(OCCCN5CCOCC5)cc4)cc3[nH]2)c1)N1CCCC1 [Compound 302] | 5.9 | 9.9 |  |  |  |
| COCCOc1ccc(-c2cnc3nc(-c4cc(NC(=O)N5CCCC5)ccc4F)[nH]c3c2)cc1 [Compound 312] | 1.75 | 3.7 |  |  |  |
| CC(C)OC(=O)Nc1ccc(Cl)c(-c2nc3ncc(-c4ccccc4NC(=O)CCN)cc3[nH]2)c1 [Compound 342] | > 25 | 39.1 |  |  |  |
| Cc1c[nH]nc1-c1cnc2nc(-c3cc(NC(=O)c4ccco4)ccc3Cl)[nH]c2c1 [Compound 73] | 0.82 | 8.2 |  |  |  |
| CNc1ccc(-c2cnc3nc(-c4cc(NC(=O)Nc5ccc(C(F)(F)F)cc5)ccc4F)oc3c2)cc1 [Compound 393] | > 12.5 | > 50 |  |  |  |
| Cc1n[nH]cc1-c1cnc2nc(-c3cc(NC(=O)Nc4ccc(C(F)(F)F)cc4)ccc3F)oc2c1 [Compound 394] | 11.7 | 4.8 |  |  |  |
| Cc1cc(COc2ccc(-c3cnc4nc(-c5cc(NC(=O)c6ccco6)ccc5Cl)[nH]c4c3)cc2)no1 [Compound 44] | 0.283 | 0.82 |  |  |  |
| Cc1cnc2nc(-c3cc(NC(=O)c4ccco4)ccc3Cl)oc2c1 [Example 418, N-(4-chloro-3-{6-methyl-[1,3]oxazolo[4,5-b]pyridin-2-yl}phenyl)-furan-2-carboxamide] | 1.51 |  | 8.4 |  |  |
| Cc1cnc2nc(-c3cc(NC(=O)c4ccc(CN(C)C)o4)ccc3Cl)[nH]c2c1 [Compound 94] | > 25 | 4.9 |  |  |  |
| Nc1ccccc1-c1cnc2nc(-c3cc(NC(=O)c4ccco4)ccc3Cl)[nH]c2c1 [Compound 23] | 0.32 | 0.37 |  |  |  |
| CNC(=O)Nc1ccc(-c2cnc3nc(-c4cc(NC(=O)c5ccco5)ccc4Cl)[nH]c3c2)cc1 [Compound 57] | 1.83 | > 50 |  |  |  |
| O=C(Nc1ccc(F)c(-c2nc3ncc(Br)cc3o2)c1)c1cnco1 [Compound 408] | 3.8 | > 50 |  |  |  |

| SMILES | EC50 [1, 3] [µM] | EC50 [2, 4] [µM] | EC50 [2, 5] [µM] | EC50 ([1]; read-out: L. donovani amastigotes EC50) [µM] | EC50 ([1]; 48 h, L. donovani axenic amastigotes, 2 day incubation, Cell TiterGlo luminescence, read-out: EC50) [µM] |
| --- | --- | --- | --- | --- | --- |
| O=C(Nc1ccc(Cl)c(-c2nc3ncc(-c4ccc(OC(F)(F)F)cc4)cc3[nH]2)c1)c1ccco1 [Compound 25] | 5.6 | 9.5 |  |  |  |
| CN(C)c1ccc(-c2cnc3nc(-c4cc(NC(=O)Nc5ccc(C(F)(F)F)cc5)ccc4F)oc3c2)cc1 [Compound 390] | 12.6 | 18.2 |  |  |  |
| O=C(Nc1ccc(Cl)c(-c2nc3ncc(-c4ccccc4)cc3o2)c1)c1ccco1 [Example 416, N-(4-chloro-3-{6-phenyl-[1,3]oxazolo[4,5-b]pyridin-2-yl}phenyl)-furan-2-carboxamide] | 1.52 |  | 2.9 |  |  |
| Cc1cnc2nc(-c3cc(NC(=O)c4ccc(S(C)(=O)=O)nc4)ccc3Cl)[nH]c2c1 [Compound 136] | > 25 | > 50 |  |  |  |
| Cc1cnc2nc(-c3cc(NC(=O)c4nc(C)oc4C(F)(F)F)ccc3Cl)[nH]c2c1 [Compound 176] | > 25 | > 50 |  |  |  |
| O=C(Nc1ccc(C(F)(F)F)cc1)Nc1ccc(F)c(-c2nc3ncc(-c4ccc(NCCN5CCOCC5)nc4)cc3o2)c1 [Compound 391] | > 25 | > 12.3 |  |  |  |
| Cc1cnc2nc(-c3cc(NC(=O)c4ccnc(C)c4)ccc3Cl)[nH]c2c1 [Compound 188] | 2.26 | 11.6 |  |  |  |
| O=C(Nc1ccc(C(F)(F)F)cc1)Nc1ccc(F)c(-c2nc3ncc(-c4ccc(N5CCCCC5)cc4)cc3o2)c1 [Compound 399] | 15.8 | 5.9 |  |  |  |
| O=C(Nc1ccc(F)c(-c2nc3ncc(Br)cc3[nH]2)c1)N1CCOCC1 [Compound 365] | 19.8 | > 50 |  |  |  |
| O=C(Nc1ccc(F)c(-c2nc3ncc(-c4ccccc4)cc3[nH]2)c1)N1CCCC1 [Example 309, N-(4-fluoro-3-{6-phenyl-1H-imidazo[4,5-b]pyridin-2-yl}phenyl)pyrrolidine-1-carboxamide] | 1.97 | 4.5 |  |  |  |
| Cc1cnc2nc(-c3cc(NC(=O)c4ccnc(C)c4C)ccc3Cl)[nH]c2c1 [Compound 189] | > 25 | > 28.9 |  |  |  |
| CN(C)Cc1ccc(-c2cnc3nc(-c4cc(NC(=O)c5ccco5)ccc4Cl)[nH]c3c2)cc1 [Compound 15] | 6.1 | 0.72 |  |  |  |
| CN(C)c1ccc(F)c(-c2nc3ncc(-c4ccc(OCCN5CCOCC5)cc4)cc3o2)c1 [Example 420, 4-Fluoro-N,N-dimethyl-3-(6-{4-[2-(morpholin-4-yl)ethoxy]phenyl}-[1,3]oxazolo[4,5-b]pyridin-2-yl)aniline] | > 25 |  | > 50 |  |  |
| CC(C)OC(=O)Nc1ccc(-c2cnc3nc(-c4cc(NC(=O)c5ccco5)ccc4Cl)[nH]c3c2)cc1 [Compound 31] | 0.177 | 0.45 |  |  |  |
| O=C(Nc1ccc(F)c(-c2nc3ncc(Br)cc3[nH]2)c1)c1cc[nH]n1 [Compound 368] | 18.9 | > 50 |  |  |  |
| Cc1cnc2nc(-c3cc(NC(=O)c4c(C)noc4C)ccc3Cl)[nH]c2c1 [Compound 105] | > 25 | > 50 |  |  |  |
| COCn1c(-c2cc(NC(=O)N3CCCC3)ccc2Cl)nc2cc(Br)cnc21 [Example 385, N-{3-[6-bromo-3-(methoxymethyl)-3H-imidazo[4,5-b]pyridin-2-yl]-4-chlorophenyl}pyrrolidine-1-carboxamide] |  | > 10.9 |  | > 23.2 |  |
| COC(=O)Nc1ccc(-c2cnc3nc(-c4cc(NC(=O)OC(C)C)ccc4Cl)[nH]c3c2)cc1 [Compound 341, methyl N-{4-[2-(2-chloro-5-{[(propan-2-yloxy)carbonyl]amino}phenyl)-1H-imidazo[4,5-b]pyridin-6-yl]phenyl}carbamate] | 0.08 | 0.23 |  |  | ~0.08 |
| Nc1ccc(-c2cnc3nc(-c4cc(NC(=O)Nc5ccc(C(F)(F)F)cc5)ccc4F)oc3c2)cn1 [Compound 400] | 1.62 | 4 |  |  |  |
| Nc1ccc(-c2cnc3nc(-c4cc(NC(=O)c5ccco5)ccc4Cl)[nH]c3c2)cc1 [Compound 12] | 0.258 | 0.4 |  |  |  |
| Cc1cnc2nc(-c3cc(NC(=O)c4ccno4)ccc3F)[nH]c2c1 [Compound 270] | 20 | > 50 |  |  |  |
| N#Cc1ccc(C(=O)Nc2ccc(Cl)c(-c3nc4ncc(C(F)(F)F)cc4[nH]3)c2)o1 [Compound 281] | 1.98 | 6.3 |  |  |  |
| Cc1cnc2nc(-c3cc(NC(=O)c4ccc(OCCN(C)C)cc4)ccc3F)[nH]c2c1 [Compound 269] | > 25 | > 50 |  |  |  |
| NS(=O)(=O)c1ccc(-c2cnc3nc(-c4cc(NC(=O)c5ccco5)ccc4Cl)[nH]c3c2)cc1 [Compound 66] | 4.6 | > 39.1 |  |  |  |
